Measurements as given in patent US20260027243A1, “AMPHIPHILIC COMPOUNDS FOR ATTENUATING NEUROTOXICITY OF AMYLOID-beta OLIGOMERS AND DIAGNOSTIC METHODS” (THE BOARD OF TRUSTEES OF THE UNIVERSITY OF ILLINOIS, priority 2022, published 2026).

Assays:
Aβ42 fibrils = target: T1, Aβ42 fibrils (Homo sapiens, UniProt P05067); test: Fluorescence saturation binding assay with Aβ42 fibrils; conditions: read-out: Kd value to Aβ42 fibrils
T1 construct: commercial Aβ42 monomer powder (from GL biochem); purchased GL biochem
Protocol: Preparation of the Aβ42 Fibrils and Aβ42 Oligomers. Aβ42 fibrils: 1 mg of commercial Aβ42 monomer powder (from GL biochem) was dissolved in 1 mL 1,1,1,3,3,3-hexafluoro-2-propanol (HFIP) at room temperature and incubated for 1 h. The resulting solution was divided equally into two Eppendorf tubes. The solution in each Eppendorf tube containing 0.5 mg Aβ42 monomer was then evaporated overnight and dried by vacuum centrifuge to generate monomeric films. […] Aβ42 fibrils solution was prepared by dissolving the 0.5 mg monomeric films in 1.1 mL PBS buffer (with final DMSO concentration less than 1%) and stirring at 37° C. for 3 days.
(§1) In Vitro Saturation Binding Studies with Aβ42 Fibrils and Aβ42 Oligomers. To a solution of increasing concentrations of compounds, a fixed concentration of the generated aggregated Aβ42 fibrils or Aβ42 oligomers solutions (5 to 15 NM) was added to yield a total volume of 100 μL. Nonspecific binding was determined […]. The mixture was incubated for 15 min at room temperature. All fluorescence data were obtained on a SpectraMax M2e plate reader (Molecular Devices). The fluorescent intensity was measured at the corresponding emission wavelength of each compound, and the Kd binding curves were generated by GraphPad Prism 8.0 with one site-specific binding model. Equation: Y=Bmax*X/(Kd+X).

Aβ42 oligomers = target: T2, Aβ42 oligomers (Homo sapiens, UniProt P05067); test: Fluorescence saturation binding assay with Aβ42 oligomers; conditions: read-out: Kd value to Aβ42 oligomers
T2 construct: commercial Aβ42 monomer powder (from GL biochem); purchased GL biochem
Protocol: Aβ42 oligomers: The 0.5 mg monomeric films were dissolved in 1.1 mL PBS buffer (with final DMSO concentration less than 1%) and incubated at 4° C. overnight. The resulting solution was then centrifuged at 3000 rpm for 15 mins to remove the insoluble aggregates. The clear supernatant was then used for the following experiments. Aβ42 oligomers concentration was checked by measuring the absorbance of the supernatant at 280 nm.
as §1

[1] = Log D by octanol-PBS partition; assay type: physicochemical; conditions: DCM compounds
Protocol: Log D measurements. The Log D value was measured following a published procedure using slight modifications. In general, compounds in 0.5 mL octanol was subjected to partition with 0.5 mL octanol-saturated PBS. The whole mixture was stirred vigorously for 5 min, and centrifuged at 2,000 rpm for 5 min. The top octanol layer was separated for later fluorescence measurement. The remaining PBS layer was partitioned with 0.5 mL PBS-saturated octanol, and the second top octanol layer was then separated after vigorous stirring and centrifuging at 2,000 rpm for another 5 min. The two octanol layers' fluorescence spectra were recorded. The log D value was calculated by the fluorescence intensity ratio at the compounds' emission wavelength for the above two octanol extractions.

[2] = tested on: human neuroblastoma cells (SH-SY5Y); test: Cytotoxicity of DCM compounds in SH-SY5Y cells; assay type: cell-based; conditions: at 2 μM
From the text: Fluorescence Imaging of 5×FAD Mouse Brain Sections and blood-brain barrier (BBB) permeability. To confirm the developed compounds can also bind to native Aβ aggregates, we performed fluorescence imaging studies and colocalization experiments on 5×FAD mouse brain sections. […] This further supports that the compounds are selective and can bind to native soluble Aβ oligomers. Before investigating the blood-brain barrier (BBB) permeability of the developed compounds, their neurotoxicity was measured first (FIG. 12). […] DCM-OH-2 leads to less than 80% cell viability even at 2 μM, which is probably due to its poor solubility. Nevertheless, the DCM-OH-2-DT was chosen as the candidate to test the blood-brain barrier (BBB) permeability. 12-month-old AD mice were treated with compound DCM-OH-2-DT (0.1 mg/Kg) for 10 days via intraperitoneal injection. At the end of treatment, mice brains were harvested and colocalization experiments were performed on the mice brain sections.

T2 sequence (P05067 672-713 limits assumed): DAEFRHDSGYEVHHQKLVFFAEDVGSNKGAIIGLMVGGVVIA
T1 sequence (P05067 672-713 limits assumed): as above

N#CC(C#N)=C1C=C(/C=C/C=C/c2ccc(O)cc2)Oc2ccccc21 [DCM-OH-2]
Kd (Aβ42 fibrils): 80 nM
Kd (Aβ42 oligomers): 120 nM
logD [1]: 0.96 ± 0.07
cell viability [2]: less than 80%
